Experimental data published in article PMC3784351 (Cancer chemotherapy and pharmacology, 2013).

What was measured:
[1] = target: T1, proton-coupled folate transporter (PCFT) (Homo sapiens, UniProt Q96NT5); assay: tritiated influx in HeLa R1-PCFT versus R1-11 cells; format: cell-based
T1 sequence (Q96NT5 1-459): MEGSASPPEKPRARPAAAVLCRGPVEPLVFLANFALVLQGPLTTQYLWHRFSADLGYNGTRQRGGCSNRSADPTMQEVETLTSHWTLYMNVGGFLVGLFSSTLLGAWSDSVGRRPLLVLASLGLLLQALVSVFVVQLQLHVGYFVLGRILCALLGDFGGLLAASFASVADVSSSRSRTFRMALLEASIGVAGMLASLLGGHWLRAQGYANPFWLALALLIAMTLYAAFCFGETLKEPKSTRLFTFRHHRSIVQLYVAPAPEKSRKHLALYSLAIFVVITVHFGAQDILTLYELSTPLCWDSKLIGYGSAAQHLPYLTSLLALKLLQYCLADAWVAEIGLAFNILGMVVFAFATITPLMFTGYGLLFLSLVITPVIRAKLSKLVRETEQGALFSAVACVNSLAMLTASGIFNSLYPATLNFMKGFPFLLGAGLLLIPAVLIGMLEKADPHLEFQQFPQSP

[2] = substrate: C#CCC(Cc1cnc2nc(N)nc(N)c2n1)c1ccc(C(=O)N[C@@H](CCC(=O)O)C(=O)O)cc1; assay: cells, lysate or membranes; conditions: pH 7.4

| Molecule | tritiated influx in HeLa R1-PCFT versus R1-11 cells (poor substrate) [1] | Km [2] [µM] |
| --- | --- | --- |
| C#CCC(Cc1cnc2nc(N)nc(N)c2n1)c1ccc(C(=O)N[C@@H](CCC(=O)O)C(=O)O)cc1 (some centres unmarked) [pralatrexate] | among the antifolates tested, pralatrexate was the poorest substrate for PCFT | – |
| reduced folate carrier (RFC) (Homo sapiens) (protein) MVPSSPAVEKQVPVEPGPDPELRSWRHLVCYLCFYGFMAQIRPGESFITPYLLGPDKNFTREQVTNEITPVLSYSYLAVLVPVFLLTDYLRYTPVLLLQGLSFVSVWLLLLLGHSVAHMQLMELFYSVTMAARIAYSSYIFSLVRPARYQRVAGYSRAAVLLGVFTSSVLGQLLVTVGRVSFSTLNYISLAFLTFSVVLALFLKRPKRSLFFNRDDRGRCETSASELERMNPGPGGKLGHALRVACGDSVLARMLRELGDSLRRPQLRLWSLWWVFNSAGYYLVVYYVHILWNEVDPTTNSARVYNGAADAASTLLGAITSFAAGFVKIRWARWSKLLIAGVTATQAGLVFLLAHTRHPSSIWLCYAAFVLFRGSYQFLVPIATFQIASSLSKELCALVFGVNTFFATIVKTIITFIVSDVRGLGLPVRKQFQLYSVYFLILSIIYFLGAMLDGLRHCQRGHHPRQPPAQGLRSAAEEKAAQALSVQDKGLGGLQPAQSPPLSPEDSLGAVGPASLEQRQSDPYLAQAPAPQAAEFLSPVTTPSPCTLCSAQASGPEAADETCPQLAVHPPGVSKLGLQCLPSDGVQNVNQ | – | 0.52 ± 0.2 |
